For experiment [1], the system named is MDA-MB-231. The experiment can be described thus: Cytotoxicity against human MDA-MB-231 cells assessed as cell viability at 1 uM measured under normoxic condition after 48 hrs relative to control. The experiment is classed as functional. The settings on record: read-out: Activity.
The next experiment concerns the target Carbonic anhydrase 9 (Homo sapiens, UniProt Q16790). Nature of the experiment: Inhibition of recombinant human CA9 preincubated for 15 mins by measured for 10 to 100 secs by phenol red dye based stopped flow CO2 hydration assay.
Experiment [2] deals with MDA-MB-231. The experiment can be described thus: Cytotoxicity against human MDA-MB-231 cells assessed as cell viability at 10 uM measured under normoxic condition after 48 hrs relative to control. The class given is functional. The settings on record: read-out: Activity.
The test system of experiment [3] is MDA-MB-231. Nature of the experiment: Cytotoxicity against human MDA-MB-231 cells assessed as cell killing under hypoxia conditions at 10 uM measured after 48 hrs relative to control. The experiment is classed as functional.
Experiment [4] deals with MDA-MB-231. The experiment can be described thus: Cytotoxicity against human MDA-MB-231 cells assessed as cell killing under hypoxia conditions at 1 uM measured after 48 hrs relative to control. The experiment is classed as functional.
The test system of experiment [5] is MDA-MB-231. Nature of the experiment: Cytotoxicity against human MDA-MB-231 cells assessed as cell killing at 1 uM measured under normoxic condition after 48 hrs relative to control. The class given is functional.
Experiment [6] has as its system MDA-MB-231. The experiment can be described thus: Cytotoxicity against human MDA-MB-231 cells assessed as cell viability under hypoxia conditions at 1 uM measured after 48 hrs relative to control. The class given is functional.
Experiment [7] has as its system MDA-MB-231. The experiment can be described thus: Cytotoxicity against human MDA-MB-231 cells assessed as cell viability under hypoxia conditions at 10 uM measured after 48 hrs relative to control. The experiment is classed as functional.

viability, Ki and Activity data for seven molecules are collected here from ChEMBL document CHEMBL4811284, “Tellurides bearing benzensulfonamide as carbonic anhydrase inhibitors with potent antitumor activity” (Bioorg Med Chem Lett, 2021).

Molecules are shown by their SMILES.

For orientation: Ki means the equilibrium dissociation constant of an inhibitor or competing ligand from its target. For `COc1cc([Te]Cc2ccc(S(N)(=O)=O)cc2)cc(OC)c1OC`, the viability at 1 µM in the experiment with MDA-MB-231 [1] stood at 18%. The Ki at Carbonic anhydrase 9 was determined as 2.4 nM. For the same molecule, in the experiment with MDA-MB-231 [2], the viability at 10 µM turned out to be 3%. The Activity with MDA-MB-231 [3] is recorded as 85%; in the experiment with MDA-MB-231 [4], 65%.

For the molecule `Cc1ccccc1[Te]Cc1ccc(S(N)(=O)=O)cc1`, the Ki at Carbonic anhydrase 9 came out at 2.6 nM.

For the molecule `NS(=O)(=O)c1ccc(C[Te]c2ccccc2)cc1`, on Carbonic anhydrase 9, the Ki amounted to 2.4 nM. Moreover, the Activity in the experiment on MDA-MB-231 [5] is recorded as 90%; with MDA-MB-231 [6] it was 16%; with MDA-MB-231 [7] it was 13%. In addition, the viability at 10 µM with MDA-MB-231 [2] stood at 5%.

Regarding `COc1ccc([Te]Cc2ccc(S(N)(=O)=O)cc2)cc1`, the Ki on Carbonic anhydrase 9 is 2.6 nM.

With `Cc1cccc(C)c1[Te]Cc1ccc(S(N)(=O)=O)cc1`, the inhibition constant Ki on Carbonic anhydrase 9 came to 2.5 nM.

For `NS(=O)(=O)c1ccc(C[Te]c2ccc3ccccc3c2)cc1`, at Carbonic anhydrase 9, the Ki was 2.9 nM.

`Cc1ccc([Te]Cc2ccc(S(N)(=O)=O)cc2)cc1`: the Ki on Carbonic anhydrase 9 turned out to be 2.2 nM.
